Test results: patent US11299453B2 (Universität zu Köln, priority 2017, dated 2022)

Assays:
murine αPIG-AT25 iPSCs = test: Cell viability (PrestoBlue) of murine iPSCs after compound treatment; type: cell-based; conditions: 48 h; for concentration dependence of effect on miPSC viability: 0.1, 1, 10 and 25 μM; for toxicity to miPSCs (in words): 0.1-25 μM
Text: (§1) The transgenic murine induced pluripotent stem cell (miPSC) line αPIG-AT25 was generated from the miPSC line TiB7.4 as described in Fatima A et al., Stem Cell Res. 2016 Sep.; 17(2):266-272. The murine embryonic stem cell (ESC) line αPIG44-D3 was equally derived from D3 ESC line. Both transgenic mPSC lines express the IRES-linked genes encoding puromycin N-acetyl-aminotransferase (PAC) and enhanced green fluorescent protein (eGFP) which are under the control of cardiac alpha myosin heavy chain (α-MHC) promoter. They were cultured on mitomycin-inactivated mouse embryonic fibroblasts (MEF) in maintenance medium composed of Dulbecco's minimal essential medium (DMEM) with GlutaMAX (Life Technologies, Carlsbad, USA) supplemented with 15% fetal bovine serum (FBS, Sigma-Aldrich, St. Louis, USA), 1× non-essential amino acids (NEEA, Life Technologies), 50 μM β-mercaptoethanol (β-ME, Life Technologies) and 1000 U/ml of murine leukemia inhibitory factor (mLIF, ORF Genetics, Kopavogur, Iceland). Cell passaging was performed every 2-3 days by dissociating the cells with 0.05% trypsin-EDTA (Life Technologies) and seeding 1-2×10^4 cells/cm^2. The wild type mESC line R1 was cultured on cell culture plates coated with 0.1% gelatin (Sigma-Aldrich) and maintained like the transgenic mPSCs.
(§2) Serial dilutions of DMSO stock solutions of PluriSIn #1 (Sigma-Aldrich, catalog number SML0682) or one of small molecules SM1-SM10, were prepared from 20 mM stock solutions with cell culture medium. Murine PSCs were dissociated with 0.05% trypsin-EDTA, seeded on 0.1% gelatin-coated 96-well plates with a density of 5000 cells/well and cultured in maintenance medium supplemented with 1000 U/ml of mLIF. After 1 day, cells were incubated with 40 μM PluriSIn #1 and derivatives for 72 h or with 0.01-25 μM SMs for 48 h, respectively. For treatment of corresponding PSC-derived CMs with SMs, puromycin-selected miPSC-CMs from day 14 of differentiation were dissociated with 0.25% trypsin-EDTA as described above and plated on 96-well plates (5×10^4 cells/well) which were pre-coated with 5 μg/ml fibronectin (PromoCell, Heidelberg, Germany). After culturing miPSC-CMs with 8 μg/ml puromycin for 2 more days, they were incubated in differentiation medium supplemented with 0.1-100 μM of SMs for 48-72 h. Following small molecule treatment, cell viability was determined with PrestoBlue cell viability reagent (Life Technologies). To this end, cells were washed with PBS (with calcium and magnesium, Life Technologies) and incubated with PrestoBlue reagent diluted in cell culture medium for 40 min at 37° C.
(§3) Fluorescence intensities correlating with the number of viable cells in the wells were measured in black flat-bottom 96-well plates (Greiner Bio-One, Kremsmünster, Austria) with a GeniosPro microplate reader (Tecan, Männedorf, Schweiz).
IC50 values were determined by regression analysis of dose-response curves upon logarithmic transformation. Microscopic images of PSCs were taken with a Zeiss Axiovert 100 inverted microscope and GFP images of CMs were captured with a Zeiss Axiovert 200M fluorescence microscope (both Carl Zeiss, Oberkochen, Germany) and analyzed with Zeiss Axiovision 4.5 software (Carl Zeiss).
The cytotoxicity of the compounds according to formulas SM1 to SM10 to pluripotent stem cells (PSCs) was determined in a population of murine αPIG-AT25 iPSCs, which were incubated for 48 h with compounds SM1 to SM10 in concentrations of 0.1 μM, 1 μM, 10 μM and 25 μM. Cell culture was performed as described above. Experiments were run in quadruplicate and negative and positive control cells were treated with 0.125% DMSO or 8 μg/ml puromycin, respectively. The cell viability was determined using PrestoBlue cell viability reagent. […]

[1] = system: murine αPIG-AT25 iPSC-CM monolayers
[2] = system: murine αPIG-AT25 iPSCs, αPIG44-D3 ESCs and R1 ESCs; test: Cell viability (PrestoBlue), results pooled over murine PSC lines; type: cell-based; conditions: 40 μM, 72 h
Text: as §1, §2, §3
To confirm the cytotoxicity of the compounds to PSCs, toxicity test were also run with murine ESC lines αPIG44-D3 and R1, and for comparison with αPIG-AT25 murine iPSC line. The cells were incubated for 48 h with compounds SM1, SM2, SM4, SM5, SM6 and SM8 in concentrations of 0.01 μM and 10 μM. Cell culture was performed as described above. Experiments were run in quadruplicate and negative and positive control cells were treated with 0.05% DMSO or 8 μg/ml puromycin, respectively. Cell viability was determined using PrestoBlue cell viability reagent.
Murine αPIG-AT25 iPSCs, αPIG44-D3 ESCs and R1 ESCs were incubated with 40 μM PluriSIn #1 (Sigma-Aldrich, catalog number SML0682) for 72 h. Cell culture was performed as described above for determination of the compounds. Experiments were run in quadruplicate and negative and positive control cells were treated with 0.08% DMSO or 8 μg/ml puromycin, respectively. The cell viability was determined using PrestoBlue cell viability reagent. […]

teratoma formation = conditions: after transplanting 1 million cells into immunodeficient mice; cited from earlier work
[3] = system: human pluripotent stem cells; conditions: exposure for 48 hours; cited from earlier work
[4] = system: human neural progenitor cells derived from the human iPSC line Royan-hiPSC4; test: Cell viability (PrestoBlue) of human iPSC-derived neural progenitor cells; type: cell-based; conditions: 1 μM, 72 h of treatment
Procedure: To confirm the cytotoxicity of the compounds to PSCs, toxicity tests were also run with human neural progenitor cells (passage 20) derived from the human iPSC line Royan-hiPSC4 (RSCB0082). The cells were incubated for 24 h, 48 h and 72 h with compounds SM20, SM21, SM22 and SM23 in concentrations of 1 μM, 3 μM, 10 μM and 25 μM. Cell culture was performed as described above except that Koch medium was used. Experiments were run in quadruplicate and negative and positive control cells were treated with 0.001% DMSO or 0.1 μM, 1 μM, 10 μM and 25 μM of SM6, respectively. Cell viability was determined using PrestoBlue cell viability reagent.

CN(Cc1cc(C(C)(C)C)cc(C(C)(C)C)c1O)[C@@H]1CCCC[C@H]1N(C)Cc1cc(C(C)(C)C)cc(C(C)(C)C)c1O [SM9, (1R,2R)-N,N′-dimethyl-N,N′-di[(2-hydroxy-3,5-di-tert.- butyl)benzyl]-1,2-diaminocyclohexane]
concentration dependence of effect on miPSC viability (murine αPIG-AT25 iPSCs): did not show a concentration dependent effect
toxicity to miPSCs (in words) (murine αPIG-AT25 iPSCs): did not

N.N.[Cl][Pt][Cl] [cisplatin]
apoptotic CMs (cleaved caspase-3 staining) [1]: presence of apoptotic CMs
sarcomere structure (α-actinin staining) [1]: degradation of the sarcomere structure

O=C(NNc1ccccc1)c1ccncc1 [PluriSIn #1]
reduction of cell viability, on average over the three murine PSC lines [2]: 51.32±10.86%
teratoma formation (teratoma formation): prevented teratoma formation
removal of human pluripotent stem cells from the culture [3]: successfully removed human pluripotent stem cells from the culture

CC(C)(C)c1cc(CN[C@@H]2CCCC[C@H]2NCc2cc(C(C)(C)C)cc(C(C)(C)C)c2O)c(O)c(C(C)(C)C)c1 [SM10, (1R,2R)-N,N′-di[(2-hydroxy-3,5-di-tert.- butyl)benzyl]-1,2-diaminocyclohexane]
concentration dependence of effect on miPSC viability (murine αPIG-AT25 iPSCs): did not show a concentration dependent effect
toxicity to miPSCs (in words) (murine αPIG-AT25 iPSCs): did not

c1ccc2[nH]c(CN[C@@H]3CCCC[C@H]3NCc3cc4ccccc4[nH]3)cc2c1 [SM21, (1R,2R)-N,N′-di[(2-indolyl)methyl]-1,2-diaminocyclohexane]
toxicity to miPSCs (in words) (murine αPIG-AT25 iPSCs): good toxicity

Oc1c(CN[C@@H]2CCCC[C@H]2NCc2cccc(-c3c(F)c(F)c(F)c(F)c3F)c2O)cccc1-c1c(F)c(F)c(F)c(F)c1F [SM20, (1R,2R)-N,N′-di[(2-hydroxy-3-penta-fluorophenyl)-benzyl]-1,2-diaminocyclohexane]
NPCs killed [4]: eliminated all cells
toxicity to miPSCs (in words) (murine αPIG-AT25 iPSCs): good toxicity

CC(C)(C)c1cc(C(=O)N[C@@H]2CCCC[C@H]2NC(=O)c2cc(C(C)(C)C)cc(C(C)(C)C)c2O)c(O)c(C(C)(C)C)c1 [SM7, (1R,2R)-N,N′-di[(2-hydroxy-3,5-di-tert.- butyl)benzoyl]-1,2-diaminocyclohexane]
toxicity to miPSCs (in words) (murine αPIG-AT25 iPSCs): did not

CN(Cc1cccc(-c2ccccc2)c1O)[C@@H]1CCCC[C@H]1N(C)Cc1cccc(-c2ccccc2)c1O [SM3, (1R,2R)-N,N′-dimethyl-N,N′-di[(2-hydroxy-3-phenyl)-benzyl]-1,2-diaminocyclohexane]
toxicity to miPSCs (in words) (murine αPIG-AT25 iPSCs): did not

Oc1c(CN[C@@H]2CCCC[C@H]2NCc2cccc(-c3cccs3)c2O)cccc1-c1cccs1 [SM23, (1R,2R)-N,N′-di([2-hydroxy-3-(2-thienyl)]-benzyl)-1,2-diaminocyclohexane]
NPCs killed [4]: eliminated all cells
toxicity to miPSCs (in words) (murine αPIG-AT25 iPSCs): good toxicity
